US7329650B2, “Peptides and peptide analogues designed from HFE protein and their uses in the treatment of iron overload diseases” (Bio-Rad Laboratories, Inc., priority 1998, dated 2008)
Ends that are not written are not given here.

Molecular target: T1, transferrin receptor (TfR) (Homo sapiens, UniProt P02786)
T1 construct: HeLa cells were grown to 80-90% confluence at 37° C. at 5% CO2; endogenous in cells; host or cells: HeLa cells
Experiment: Measurement of cell-associated transferrin (labeled transferrin binding to HeLa cells, Scatchard analysis)
Conditions: for effect on TfR affinity for transferrin (in words): HeLa cells, peptide 50 μM or soluble HFE/β2m 100 nM alone

T1 sequence (P02786 whole entry): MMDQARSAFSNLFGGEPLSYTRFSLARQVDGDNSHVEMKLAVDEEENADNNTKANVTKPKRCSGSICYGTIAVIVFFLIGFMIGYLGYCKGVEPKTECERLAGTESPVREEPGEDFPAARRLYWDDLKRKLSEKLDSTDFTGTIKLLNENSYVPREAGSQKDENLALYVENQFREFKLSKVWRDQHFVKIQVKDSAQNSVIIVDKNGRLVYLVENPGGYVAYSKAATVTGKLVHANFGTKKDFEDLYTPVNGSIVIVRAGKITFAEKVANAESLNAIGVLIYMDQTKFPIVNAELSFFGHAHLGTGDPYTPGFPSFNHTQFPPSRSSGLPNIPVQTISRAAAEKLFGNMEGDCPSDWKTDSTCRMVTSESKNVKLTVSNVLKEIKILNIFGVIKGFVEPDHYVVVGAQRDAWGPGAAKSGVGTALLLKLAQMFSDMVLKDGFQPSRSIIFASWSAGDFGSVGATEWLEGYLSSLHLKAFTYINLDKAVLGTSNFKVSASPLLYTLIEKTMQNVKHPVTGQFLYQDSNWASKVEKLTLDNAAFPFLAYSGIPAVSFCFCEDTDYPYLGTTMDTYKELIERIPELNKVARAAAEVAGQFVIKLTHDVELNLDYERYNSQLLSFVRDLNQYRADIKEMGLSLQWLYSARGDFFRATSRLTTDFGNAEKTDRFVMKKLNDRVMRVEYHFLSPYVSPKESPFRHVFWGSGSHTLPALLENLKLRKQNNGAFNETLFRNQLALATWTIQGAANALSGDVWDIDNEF

Sequence	effect on TfR affinity for transferrin (in words) (FIG. 2 experiment)	effect on TfR affinity for transferrin (in words) (FIG. 3 experiment)	increase of KD of TfR for transferrin versus HeLa cells alone (FIG. 1 experiment, peptide 50 μM or soluble HFE/β2m 100 nM)
GWDHMFTVDFATIMENH [G-(17)-H (Ala)]	little effect	little effect	–
GWDHMFTVDFWTIMENH [G-(17)-H (Trp)]	–	significant increase in KD	approximately 2 fold
